Experimental data: publication PMC10510102, “Efficient Ligand Discovery Using Sulfur(VI) Fluoride Reactive Fragments” (ACS Chemical Biology, 2023)
Several values for one entry are separate records, joined by “and”; a condition that tells them apart may be missing. Identical values can stand only once. Entries after “also recorded” stand apart in the source; their conditions may differ.

Columns and labels:
HEK293T cells = assay: Chemoproteomic profiling, proteins enriched by alkyne probes; assay type: cell-based, human; settings: 10 μM probe, 1 h; log2 ratio ≥0.58, p-value ≤0.05, #unique peptides ≥2
Procedure: (§1) HEK293T cells were treated for 1 h with probes 2j, 2k, or 2l (10 μM) or the DMSO vehicle. Competition-based experiments were also conducted where cells were pretreated with parent hits 2d (40 μM) or 2e (40 μM) for 1 h, before the addition of alkyne-containing probes 2j (10 μM) or 2k (10 μM), respectively. Following incubation, treated cells were lysed and conjugated with biotin-azide by Cu-click, and biotinylated proteins were enriched using NeutrAvidin beads. Enriched proteins were digested with LysC and trypsin, prior to analysis by LC–MS/MS (Figure 4b). […]
(§2) 6.2. Chemoproteomics workflow
(§3) Acetylation of NeutrAvidin agarose slurry:
(§4) NeutrAvidin agarose slurry (10 mL) (Thermo Fisher Scientific, 29204) was centrifuged (2 min, 2000 rpm) prior to removal of the supernatant. The beads were washed three times with PBS. PBS (9 mL) and Sulfo-NHS-acetate (482 μL, 400 mM in DMSO) (Thermo Fisher Scientific, 26777) were added, the beads were incubated at room temperature for 30 min on a falcon tube roller, and then centrifuged (2 min, 2000 rpm). Supernatant was removed and the incubation step with freshly made NHS-acetate was repeated. The reaction was quenched by adding Tris (2 mL, 1 M, pH 7.5). The beads were washed once with PBS and twice with 20% EtOH. 20% EtOH (5 mL) was added, and the beads were stored at 4 °C.
Chemoproteomics workflow:
HEK293T cell line (human origin, The Francis Crick Institute cell service) was used for this study. The cells were maintained at 37 °C with 5% CO2 in DMEM media supplemented with 10% fetal bovine serum and 1% L-Glutamine–Penicillin–Streptomycin solution (200 mM L-glutamine, 10,000 U/mL penicillin and 10 mg/mL streptomycin).
HEK293T cells were treated in triplicate with the parent compounds 2d and 2e (40 μM final concentration) or DMSO vehicle for 1 h at 37 °C in serum free media followed by a 1 h treatment with the probes 2j, 2k and 2l (10 μM final concentration) or DMSO vehicle.
(§5) Media was removed and cells were washed with PBS. […] Protein concentration of each lysate was determined using a BCA assay (Thermo Fisher Scientific, 23227). […]

CAII [1] = target: T1, CAII (Homo sapiens, UniProt P00918); assay: Chemoproteomic target engagement of CAII in cells; assay type: cell-based; settings: HEK293T cells, 10 μM probe, 1 h, vs DMSO
Procedure: as §1, §2, §3
as §4, with “The beads were washed once with PBS and twice with 20% EtOH. 20% EtOH (5 mL) was added, and the beads were stored at 4 °C.” left out
as §5

CAII [2] = target: T1, CAII; assay: Single shot screen of chemoproteomic probes, intact protein LC-MS; assay type: binding; design: purchased Sigma Aldrich C6624-500UG; host or cells: E. coli; settings: 1 μM CAII, 50 μM SF, 4 °C, 24 h
Description: Hits from the CAII screen were progressed to chemoproteomic profiling to determine cellular target engagement and to measure their off-target profiles. SFs 2d and 2e were functionalized with an alkyne handle at the linking amide group to give probes 2j and 2k. A structurally similar negative control was also designed by substitution of the sulfonamide for a methoxy group, 2l (Figure 4a). […] The proteins engaged by these three probes were subsequently studied in HEK293T cells. […]
6.1. Single shot screen of chemoproteomic probes against CAII
The (synthesized and purified) active probes 2j, and 2k, as well as negative control 2l, were plated into a Greiner 384 white low volume plate from a 10 mM source in DMSO. Purified CAII diluted from original stock into a buffer made up of HEPES (pH 7.5, 25 mM) and NaCl (50 mM) in distilled MS-grade water (15 µL per well) was subsequently added across the plate. Final concentrations: 1 µM protein; 50 µM SF. The plate was sealed, centrifuged (1 min, 1000 rpm), incubated at 4 °C for 24 h, and subsequently analyzed by intact protein LC-MS. Modification yields were measured as 78% for 2j and 95% for 2k.
6.2. Chemoproteomics workflow […]
Chemoproteomics workflow: […]
Samples were incubated with acetylated NeutrAvidin agarose slurry (100 µL) (pre-washed three times with 0.2% SDS in HEPES (50 mM, pH 8.0)) on a combinatorial microlute plate (Porvair, 240002) for 2 h. The plate was centrifuged (1 min, 700 g) to remove supernatants.
The beads were washed three times with lysis buffer and 0.2% SDS in HEPES (50 mM, pH 8.0). The proteins were digested on-bead overnight at 37 °C with LysC (60 μL, 0.004 μg/μL) in HEPES (50 mM, pH 8.0). The supernatants were collected (1 min, 700 g) on a fresh plate and trypsin (30 μL, 0.006 μg/μL) in HEPES (50 mM, pH 8.0) was added to each sample. The samples were incubated for 4 h at 37 °C and acidified with 20% formic acid (10 μL).
The peptide samples were cleaned-up using C18 96-well plate (BioPureSPE Macro 96-Well, 100 mg PROTO C18, The Nest Group). The wells were conditioned with acetonitrile (300 μL) (centrifuged for 1 min at 50 g) and equilibrated twice with 0.1% TFA (300 μL) (centrifuged for 1 min at 150 g). 0.1% TFA (100 μL) was added to digest samples, and these were subsequently loaded on the plate (centrifuged for 1 min at 150 g). The samples were washed twice with 0.1% TFA (200 μL) (centrifuged for 1 min at 150 g). The plate was centrifuged once more at 200 g for 1 min. The peptides were eluted in two steps with 0.1% TFA (150 μL) in 50% acetonitrile

BCL6 BTB/POZ domain = BCL6 BTB/POZ domain (Homo sapiens, UniProt P41182, C67R/C84N/C8Q); assay: Conventional differential scanning fluorimetry (DSF); assay type: binding; design: hBCL6-Flag 3Cmut (5-129) produced in house; FLAG (C); made in house
Procedure: We subsequently analyzed protein-fragment interactions using differential scanning fluorimetry (DSF) to explore the impact of these binding events on protein stability.[45] […] […]; this illustrates the impact of covalent modification on protein–ligand binding. […]
8.2. Conventional differential scanning fluorimetry (DSF)
BCL6-SF covalent complex preparation:
SFs 2f–i, 2p, 2q, 2s, and 2t in DMSO-d 6 (200 mM stock) or pure DMSO-d 6 were added to crystallizable BCL6 BTB/POZ domain (10 µM) in 20 mM Tris pH 8.5 and 200 mM NaCl. The reactions were incubated at 20 °C for 6 h (meta-substituted benzamide fragments) or 24 h (azetidinyl/piperidinyl fragments). Final concentrations: 10 µM protein, 500 µM SF, DMSO 0.25% v/v in 200 µL. Unreacted compound and DMSO-d 6 were removed by buffer-exchanging protein solutions into 20 mM Tris pH 8.5, 200 mM NaCl and 5% v/v glycerol inside Vivaspin 500 PES Centrifugal Concentration units. The protein was concentrated to 0.6–1.3 mg/mL within the units, according to UV-vis absorption spectrophotometry via a Nanodrop ND-1000 instrument. Protein was flash frozen using a dry ice/ethanol bath prior to […]
Differential scanning fluorimetry assay:
GSK137 (40 mM stock) or pure DMSO-d 6 were added to crystallizable BCL6 BTB/POZ domain (11 µM) in 20 mM Tris pH 8.5, 200 mM NaCl and 5% v/v glycerol to give solutions containing: 11 µM protein, DMSO 0.63% v/v and 222 µM GSK137 (where applicable).
Concentrated protein-SF complexes were also thawed and diluted to 11 µM in 20 mM Tris pH 8.5, […] and 5% v/v glycerol.
SYPRO Orange dye (Invitrogen S6650) in extra dilution buffer (50×, eq. 1% v/v DMSO) was added to give assay-ready solutions with final concentrations: 10 µM protein, SYPRO 5×, DMSO 0.1% v/v in volume 80 µL for the protein-SF covalent complexes or 10 µM protein, SYPRO 5×, DMSO 0.6% v/v in volume 100 µL with and without 200 µM GSK137.
Each solution was aliquoted (3 × 20 µL) into wells of an opaque 384-well PCR microplate (Axygen PCR-384-LC480-W) and coated with silicone oil DC 200 (5 µL; Fluka Chemicals 85413). The microplate was centrifuged (1 min, 200 g) prior to insertion into a Fluodia T70 spectrophotometer (Photal Instruments). The fluorescence intensity was detected (emission wavelength: […]) as the plate instrument interior was heated from 27–75 °C using a temperature stepping mode (waiting time before measurement: 60 s; fluorescence measurement interval: 45 s). The approximate temperature gradient was 0.5 °C min-1.
The fluorescence intensity data from the individual replicates of each sample type were normalized and identically truncated within GraphPad Prism 5.0.4.11 These values were subsequently fitted to equation (4) corresponding to a Boltzmann sigmoid in order to obtain the melting temperature (“V50”; T m) of the protein:
Y=BOTTOM+((TOP+BOTTOM)/(1+exp((V50–X)/SLOPE))) (4)
The three obtained T m values were averaged to give a final T m value in each case. The normalized fluorescence data for the three replicates of each sample were averaged to yield a single dataset for each case, which were then plotted in GraphPad Prism 5.0.4 to give the plots shown in the manuscript.11
Table S9. Thermal melting temperatures of unmodified and covalently modified BCL6 BTB/POZ domain as determined by differential scanning fluorimetry measurements.
The arithmetic mean and standard deviation from three replicates are shown.
Hit Chemotype Protein Species Tm / °C ΔT m / °C […]
meta-Substituted Benzamide BCL6 + 2g 70.4 ± 0.3 +11.7
Azetidinyl Fragments BCL6 + 2h 55.5 ± 0.1 −3.2 […]
8.3. Protocol for kinetic analyzes (BCL6)
The (resynthesized and purified) SF hits (2f–i) were plated into seven Greiner 384 white low volume plate from a 10 mM source in DMSO. Differing volumes were added such that the final concentrations for each compound would be: 100, 50, 20, 10, or 5 µM after adding 15 µL of protein stock solution per well. […]

BCL6 = tested on: BCL6; design: method as in PMID 34274316; settings: cited from earlier work

SMILES | number of proteins enriched by comparison to DMSO control (HEK293T cells) | enrichment of CAII (CAII [1]) | covalent modification of purified CAII (CAII [2]) | modification yield (CAII [2]) [%] | Tm (BCL6 BTB/POZ domain; 10 μM protein, covalent complex (500 μM SF, 6 or 24 h) or 200 μM GSK137, mean ± SD, three replicates) [°C] | ΔTm (BCL6 BTB/POZ domain; relative to unmodified BCL6) | biochemical pIC50 (BCL6)
C#CCN(Cc1cccc(S(N)(=O)=O)c1)C(=O)Cc1ccc(S(=O)(=O)F)cc1 [2j] | 523 | some enrichment | covalently modified CAII | 78 | – | – | –
C#CCN(CCc1ccc(S(N)(=O)=O)cc1)C(=O)Cc1ccc(S(=O)(=O)F)cc1 [2k] | 501 | some enrichment | covalently modified CAII | 95 | – | – | –
C#CCN(Cc1cccc(OC)c1)C(=O)Cc1ccc(S(=O)(=O)F)cc1 [2l] | 447 | – | Negligible modification; also recorded: did not | – | – | – | –
Cc1ncccc1[C@H]1C[C@@H](c2cccc3nc(N)ccc23)Nc2c(F)cnn21 [GSK137, reference compound] | – | – | – | – | > 72 | > 12.3 °C and ~12 °C | 8
